Laboratory results reported in paper PMC11079868, “Synthesis of Novel Hydrazide–Hydrazone Compounds and In Vitro and In Silico Investigation of Their Biological Activities against AChE, BChE, and hCA I and II” (ACS Omega, 2024).
Read-outs that look alike come from different tables or passages of the source.

Experiments:
Assay type in all cases: biochemical
[1] = target: T1, BChE (Equus caballus, UniProt P81908); experiment: BChE activity assay (Ellman method)
T1 construct: BChE from equine serum (C4290: Sigma-Aldrich); purchased Sigma-Aldrich C4290; host or cells: equine serum
T1 sequence (P81908 whole entry): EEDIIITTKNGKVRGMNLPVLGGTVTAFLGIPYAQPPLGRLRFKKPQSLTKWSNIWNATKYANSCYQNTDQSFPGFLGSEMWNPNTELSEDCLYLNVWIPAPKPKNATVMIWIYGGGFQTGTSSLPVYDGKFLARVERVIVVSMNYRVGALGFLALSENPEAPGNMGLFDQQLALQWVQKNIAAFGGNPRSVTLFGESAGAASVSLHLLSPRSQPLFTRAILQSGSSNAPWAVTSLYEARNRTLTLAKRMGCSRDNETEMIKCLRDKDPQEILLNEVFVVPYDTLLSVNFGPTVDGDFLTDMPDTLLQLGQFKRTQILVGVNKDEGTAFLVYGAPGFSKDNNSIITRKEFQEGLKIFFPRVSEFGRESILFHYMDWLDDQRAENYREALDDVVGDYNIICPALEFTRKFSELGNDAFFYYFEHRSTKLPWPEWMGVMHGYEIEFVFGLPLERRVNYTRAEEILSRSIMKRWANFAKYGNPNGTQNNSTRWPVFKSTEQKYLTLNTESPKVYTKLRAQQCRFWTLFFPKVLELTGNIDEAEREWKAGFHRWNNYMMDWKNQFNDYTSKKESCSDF
Text: (§1) In this study, hCA I and II were obtained from fresh human erythrocytes using affinity chromatography as previously described in the literature.[36],[37] AChE from Electrophorus electricus (electric eel) (C3389: Sigma-Aldrich), BChE from equine serum (C4290: Sigma-Aldrich), and the other chemicals (4-nitrophenyl acetate (N8130: Sigma-Aldrich), 5,5′-dithiobis(2-nitrobenzoic acid) (D218200: Sigma-Aldrich), acetylthiocholine iodide (A5771: Sigma-Aldrich), butyrylthiocholine iodide (B3253: Sigma-Aldrich)) were purchased from local representatives of well-known commercial companies. On the other hand, the absorbance rates of each compound were determined by a microplate spectrophotometer (Multiskan Go, Thermo Scientific).
(§2) The evaluation of the inhibitory characteristics of all synthesized compounds against AChE and BChE was conducted using the widely recognized Ellman method,[41] as described in pertinent literature sources.[2],[14],[18]

[2] = target: T2, hCA I (Homo sapiens, UniProt P00915); experiment: biochemical; conditions: for IC50: mean from at least three determinations
T2 construct: from tissue; host or cells: fresh human erythrocytes
T2 sequence (P00915 whole entry): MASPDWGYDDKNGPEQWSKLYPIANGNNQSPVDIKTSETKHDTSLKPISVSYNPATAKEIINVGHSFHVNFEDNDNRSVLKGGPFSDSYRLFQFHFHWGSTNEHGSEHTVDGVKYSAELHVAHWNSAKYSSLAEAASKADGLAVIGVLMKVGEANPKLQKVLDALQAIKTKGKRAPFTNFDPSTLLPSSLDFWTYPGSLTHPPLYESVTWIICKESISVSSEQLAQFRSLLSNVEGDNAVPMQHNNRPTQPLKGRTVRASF
Text: as §1
(§3) In this study, we conducted hCA I and II activity assays using the Verpoorte method, as outlined in previous literature.[38] The inhibitory activities of all of the newly synthesized compounds were thoroughly tested. The inhibitory activity of each molecule was examined in triplicate at each concentration. Different concentrations were employed for all inhibitors tested in this study, respectively. The baseline activity in the control cuvette, without any inhibitory agent, was established as 100%.

[3] = target: T3, hCA II (Homo sapiens, UniProt P00918); experiment: hCA II activity assay (Verpoorte esterase method); conditions: mean from at least three determinations
T3 construct: from tissue; host or cells: fresh human erythrocytes
Text: as §1
as §3, with “100%. AZA was used as a positive control compound.” for “100%.”

[4] = target: T4, AChE (Electrophorus electricus, UniProt O42275); experiment: AChE activity assay (Ellman method); conditions: for IC50: mean from at least three determinations
T4 construct: purchased Sigma-Aldrich C3389
T4 sequence (O42275 24-633): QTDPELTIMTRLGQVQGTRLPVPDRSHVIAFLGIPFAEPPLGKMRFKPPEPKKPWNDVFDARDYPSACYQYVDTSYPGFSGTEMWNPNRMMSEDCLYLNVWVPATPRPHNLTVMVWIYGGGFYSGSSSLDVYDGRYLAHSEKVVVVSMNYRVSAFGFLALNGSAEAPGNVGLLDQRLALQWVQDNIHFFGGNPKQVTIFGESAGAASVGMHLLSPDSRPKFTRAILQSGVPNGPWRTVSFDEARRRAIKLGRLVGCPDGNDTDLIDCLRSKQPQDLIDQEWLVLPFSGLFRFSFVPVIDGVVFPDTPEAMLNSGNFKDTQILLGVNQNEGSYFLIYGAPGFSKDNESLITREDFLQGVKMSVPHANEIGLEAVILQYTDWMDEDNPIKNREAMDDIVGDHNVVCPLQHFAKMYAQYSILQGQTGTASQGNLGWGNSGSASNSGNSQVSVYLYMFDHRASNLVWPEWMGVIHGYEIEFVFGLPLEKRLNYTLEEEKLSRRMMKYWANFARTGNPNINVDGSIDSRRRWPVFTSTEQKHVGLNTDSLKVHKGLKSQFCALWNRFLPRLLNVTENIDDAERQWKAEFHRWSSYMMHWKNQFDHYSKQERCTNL
Text: as §1, §2

[5] = mean from at least three determinations, read-out: IC50 BChE
[6] = ratio of IC50 values vs neostigmine

SMILES	IC50 [1]	IC50 [2]	IC50 [3]	IC50 [4]	IC50 [1, 5]	inhibition of hCA I relative to AZA ([2]; ratio of IC50 values vs AZA)	inhibition of AChE relative to neostigmine [4, 6]	inhibition of AChE relative to rivastigmine ([4]; ratio of IC50 values vs rivastigmine)	inhibition of BChE relative to neostigmine [1, 6]	inhibition of BChE relative to neostigmine ([1]; ratio vs neostigmine, Conclusions text)
CN(C)C(=O)Oc1cccc([N+](C)(C)C)c1 [neostigmine, reference compound]	84 ± 1.07 nM	–	–	–	–	–	–	–	–	–
CN(C)c1ccc(C(=O)Oc2ccccc2C=O)cc1 [compound 1, 2-Formylphenyl 4-(Dimethylamino)benzoate]	–	27.5 ± 0.51 nM	13.7 ± 0.27 nM	51.1 ± 0.88 nM	43.5 ± 0.75 nM	–	–	–	–	–
COc1ccc(C=O)cc1OC(=O)c1ccc(N(C)C)cc1 [compound 4, 5-Formyl-2-methoxyphenyl 4-(Dimethylamino)benzoate]	–	38.1 ± 0.65 nM	15.4 ± 0.32 nM	60.2 ± 1.02 nM	53.1 ± 0.91 nM	–	–	–	–	–
CN(C)c1ccc(C(=O)Oc2ccc(C=NNC(=O)c3cccnc3)cc2)cc1 [compound 8, 4-((2-Nicotinoylhydrazono)methyl)phenyl 4-(Dimethylamino)benzoate]	–	21.4 ± 0.39 nM	7.12 ± 0.12 nM	46.3 ± 0.75 nM	43.4 ± 0.83 nM	13 fold	–	–	–	–
COc1cccc(C=O)c1OC(=O)c1ccc(N(C)C)cc1 [compound 3, 2-Formyl-6-methoxyphenyl 4-(Dimethylamino)benzoate]	–	39.6 ± 0.72 nM	16.1 ± 0.33 nM	59.5 ± 0.96 nM	51.3 ± 0.89 nM	–	–	–	–	–
COc1cc(C=O)ccc1OC(=O)c1ccc(N(C)C)cc1 [compound 5, 4-Formyl-2-methoxyphenyl 4-(Dimethylamino)benzoate]	–	39.1 ± 0.71 nM	20.4 ± 0.35 nM	61.4 ± 1.12 nM	54.7 ± 0.91 nM	–	–	–	–	–
CN(C)c1ccc(C(=O)Oc2ccc(C=O)cc2)cc1 [compound 2, 4-Formylphenyl 4-(Dimethylamino)benzoate]	–	25.6 ± 0.47 nM	12.2 ± 0.21 nM	48.5 ± 0.81 nM	41.5 ± 0.68 nM	–	–	–	–	–
CN(C)c1ccc(C(=O)Oc2ccccc2C=NNC(=O)c2cccnc2)cc1 [compound 7, 2-((2-Nicotinoylhydrazono)methyl)phenyl 4-(Dimethylamino)benzoate]	–	29.1 ± 0.53 nM	8.03 ± 0.14 nM	48.6 ± 0.79 nM	45.3 ± 0.82 nM	–	–	–	–	–
COc1cc(C=NNC(=O)c2cccnc2)ccc1OC(=O)c1ccc(N(C)C)cc1 [compound 11, 2-Methoxy-4-((2-nicotinoylhydrazono)methyl)phenyl 4-(Dimethylamino)benzoate]	–	32.2 ± 0.72 nM	11.6 ± 0.22 nM	28.6 ± 0.52 nM	28.6 ± 0.5 nM	–	–	–	–	–
COc1cccc(C=NNC(=O)c2cccnc2)c1OC(=O)c1ccc(N(C)C)cc1 [compound 9, 2-Methoxy-6-((2-nicotinoylhydrazono)methyl)phenyl 4-(Dimethylamino)benzoate]	–	35.7 ± 0.74 nM	12.5 ± 0.21 nM	43.2 ± 0.81 nM	39.6 ± 0.71 nM	–	–	–	–	–
CN(C)c1ccc(C(=O)Oc2ccc3ccccc3c2C=NNC(=O)c2cccnc2)cc1 [compound 12, 1-((2-Nicotinoylhydrazono)methyl)naphthalen-2-yl 4-(Dimethylamino)benzoate]	–	42.7 ± 0.81 nM	23.5 ± 0.41 nM	21.4 ± 0.38 nM	18.4 ± 0.36 nM	–	more than 6 fold	approximately 3 fold	approximately 5 fold	approximately 4 times
COc1ccc(C=NNC(=O)c2cccnc2)cc1OC(=O)c1ccc(N(C)C)cc1 [compound 10, 2-Methoxy-5-((2-nicotinoylhydrazono)methyl)phenyl 4-(Dimethylamino)benzoate]	–	32.5 ± 0.73 nM	11.8 ± 0.22 nM	29.6 ± 0.53 nM	29.7 ± 0.54 nM	–	–	–	–	–
CN(C)c1ccc(C(=O)Oc2ccc3ccccc3c2C=O)cc1 [compound 6, 1-Formylnaphthalen-2-yl 4-(Dimethylamino)benzoate]	–	45.1 ± 0.82 nM	24.7 ± 0.43 nM	28.2 ± 0.52 nM	25.2 ± 0.42 nM	–	–	–	–	–
